{
  "source": "paper PMC12797170",
  "about": "“Potent Competitive Inhibitors of Ecto-5′-nucleotidase (CD73) based on 6‑(Het)aryl-7-deazapurine Ribonucleoside 5′‑O‑Bisphosphonates” (ACS Pharmacology & Translational Science, 2025)",
  "key": {"[1]": {"conditions": "AB680 literature row of Table 4; cited from earlier work"}, "[2]": {"experiment": "Microsomal stability assay, mouse liver microsomes", "type": "in vitro ADME"}, "CD8+ T cells": {"system": "CD8+ T cells", "experiment": "CD8+ T cell activation assay (CD25, IFN-γ, granzyme B)", "type": "cell-based, human", "conditions": "500 nM, separate CD8+ T-cell activation assays", "method": "6 CD73 inhibition partially reverses the immunosuppressive effect of adenosine generated from AMP in CD8 ^ + T cells. CD8^+ T cells were activated using CD3/CD28 activation beads in the presence of 2.5 μM EHNA, with or without 1 mM AMP and CD73 inhibitors (500 nM or 50 nM). A. CD25 expression. The percentage of CD8^+ T cells expressing the activation marker CD25 was measured by flow cytometry 60 h after activation. Data represent technical triplicates. B. Cytokine secretion. Granzyme B and IFN-γ levels in the culture supernatant were quantified by ELISA 60 h after activation. The data represent technical duplicates from two independently treated wells.\nPeripheral blood was obtained from healthy donors at the Military University Hospital Prague, following informed consent. CD8+ T cells were enriched using the RosetteSep Human CD8+ T Cell Enrichment Cocktail ([…] Technologies) according to the manufacturer’s instructions and subsequently isolated by density gradient centrifugation using SepMate tubes ([…] Technologies). Residual red blood cells were lysed using a red blood cell lysis buffer (155 mM NH4Cl, 12 mM NaHCO3, 0.1 mM EDTA, pH = 7.1–7.4). The isolated CD8+ T cells were resuspended in complete RPMI and counted using an automated cell counter.\nCD8+ T cells were seeded at 5 × 10^4 cells/well in 50 μL of complete RPMI in a flat-bottom 96-well plate. […] This was followed by the addition of 10 μL of a CD73 inhibitor at either 5 μM or 500 nM (experimental wells) or 10 μL of complete RPMI (control wells). Subsequently, 20 μL of 5 mM AMP was added to all wells except those serving as controls for maximal T cell activation. […]\nFollowing incubation, supernatants were collected for quantification of IFN-γ and granzyme B using ELISA. […] Finally, stained cells were washed and analyzed using a BD LSRFortessa flow cytometer. Data were processed and analyzed using FlowJo software (version 10.8.1) and GraphPad Prism 10.\nSecretion of IFN-γ and granzyme B was quantified using Human IFN-γ DuoSet ELISA and Human Granzyme B DuoSet ELISA (R&D Systems) according to the manufacturer’s instructions. […]"}, "[3]": {"experiment": "Microsomal stability assay, human liver microsomes", "type": "in vitro ADME"}, "[4]": {"experiment": "Plasma protein binding, mouse plasma", "type": "in vitro ADME", "conditions": "mouse, plasma"}, "[5]": {"experiment": "Kinetic solubility in PBS", "type": "physicochemical", "conditions": "phosphate-buffered saline, pH 7.4, aqueous buffer, kinetic from dmso stock", "in_short": "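Echo-MS quantitation with calibration from 0.05 to 4 μM, after 1:99 dilution of filtrate into 50% acetonitrile. Filtrate came from a 100 μM PBS (pH 7.4) solution equilibrated 2 h at room temperature with shaking, in duplicate.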"}, "[6]": {"experiment": "Plasma protein binding, equilibrium dialysis, human plasma", "type": "in vitro ADME", "conditions": "undiluted plasma, human plasma protein binding, read-out: PPB (hu) (converted)"}, "in vitro [7]": {"experiment": "in vitro", "conditions": "mouse, plasma"}, "in vitro [8]": {"experiment": "in vitro", "conditions": "human, plasma"}},
  "data": [
    {"smiles": "C[C@H](Nc1cc(Cl)nc2c1cnn2[C@@H]1O[C@H](COP(=O)(O)CP(=O)(O)O)[C@@H](O)[C@H]1O)c1ccccc1F", "note": "[AB680, quemliclustat, reference compound]", "values": [
      {"measurement": "fup, fraction unbound in mouse plasma", "setting": "[1]", "result": 0.89},
      {"measurement": "Mics (m) comp remaining 60 min", "setting": "[2]; 10 μM", "result": 117, "unit": "%"},
      {"measurement": "microsomal CLint at 10 µM", "setting": "[2]; pooled liver microsomes, pH 7.4, read-out: Mics (m) CLint", "result": "< 2", "unit": "µL/min/mg"},
      {"measurement": "median increase in CD25 expression", "setting": "CD8+ T cells", "result": 41, "unit": "%"},
      {"measurement": "Mics (hu) comp remaining 60 min", "setting": "[3]; 10 μM", "result": 118, "unit": "%"},
      {"measurement": "microsomal CLint at 10 µM", "setting": "[3]; pooled liver microsomes, pH 7.4, read-out: Mics (hu) CLint", "result": "< 2", "unit": "µL/min/mg"},
      {"measurement": "fraction unbound at 4 h, 100 µM", "setting": "[4]; Tables 2 and 4, mouse plasma, read-out: fup, fraction unbound in mouse plasma", "result": 0.1},
      {"measurement": "fraction unbound at 4 h, 100 µM", "setting": "[4]; mouse plasma protein binding, read-out: PPB (m) (converted)", "result": 0.098},
      {"measurement": "solubility at 2 h", "setting": "[5]", "result": 76, "unit": "µM"},
      {"measurement": "fraction unbound at 4 h, 100 µM", "setting": "[6]", "result": "≤ 0.01"},
      {"measurement": "half-life at 10 µM", "setting": "in vitro [7]", "result": "> 2", "unit": "h"},
      {"measurement": "half-life at 10 µM", "setting": "in vitro [8]", "result": "> 2", "unit": "h"}
    ]}
  ]
}
